Patent US10899758B2, “Inhibitors of the menin-MLL interaction” (Vitae Pharmaceuticals, LLC, priority 2016, dated 2021)

Molecular target: T1, menin/MLL binding (biotinylated wild-type or mutated menin and MLL-AF9 fusion protein) (Homo sapiens, UniProt O00255)
T1 construct: biotinylated (1) wild-type menin or (2) mutated menin (described in Nature (2012) Vol. 482, pp. 542-548); fused on or other part: Biotin attached chemically (Sulfo-NHS-Biotin); no fused second protein is printed for menin
T1 sequence (O00255 1-459 limits assumed): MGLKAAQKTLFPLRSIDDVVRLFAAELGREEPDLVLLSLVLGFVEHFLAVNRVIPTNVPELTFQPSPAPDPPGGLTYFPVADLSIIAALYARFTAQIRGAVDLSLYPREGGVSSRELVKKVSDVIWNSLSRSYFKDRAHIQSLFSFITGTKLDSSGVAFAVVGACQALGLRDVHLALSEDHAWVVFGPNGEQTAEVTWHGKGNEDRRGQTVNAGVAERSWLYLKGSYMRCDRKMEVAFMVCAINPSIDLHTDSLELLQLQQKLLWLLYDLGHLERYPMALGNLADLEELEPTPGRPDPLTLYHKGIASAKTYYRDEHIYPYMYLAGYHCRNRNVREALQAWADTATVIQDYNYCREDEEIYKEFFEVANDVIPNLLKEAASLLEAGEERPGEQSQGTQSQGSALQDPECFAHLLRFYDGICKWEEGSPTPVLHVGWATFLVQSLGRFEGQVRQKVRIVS
Experiment: Assay 1 (Binding Assay): AlphaLISA menin/MLL binding
Details: 5 nM biotinylated menin, MLL-AF9-FLAG lysate
Protocol: Potencies of inhibitor compounds against menin/MLL binding were assessed by AlphaLISA assay using biotinylated (1) wild-type menin or (2) mutated menin (described in Nature (2012) Vol. 482, pp. 542-548) and MLL-AF9 fusion protein bearing a FLAG epitope at its C-terminus. Menin proteins were expressed in E. coli and covalently modified with biotin using EZ-Link™ Sulfo-NHS-Biotin (ThermoFisher Cat. No. 21217) according to manufacturer's protocol. MLL1-1,396 fused to AF91-92 and the C-terminal FLAG peptide was expressed in HEK293 cells and used as a lysate cleared at 21,000×g for 10 min.
Compounds (2 μL of solutions in DMSO) were dispensed in white 96-well half-area plates (Corning Cat. No. 3693) and incubated for 30 min at RT with 5 nM biotinylated menin and appropriate amount of MLL-AF9-FLAG lysate in 40 μL of 50 mM Tris-HCl buffer pH 7.4 containing 5% (v/v) DMSO, 50 mM NaCl, 0.01% (w/v) bovine serum albumin (BSA) and 1 mM DTT. To this incubation mixture, 40 μl of AlphaLISA anti-FLAG acceptor (PerkinElmer Cat. No. AL112C) and streptavidin donor (PerkinElmer Cat. No. 6760002) beads (10 μg/mL each) was added and incubation continued at RT for 60 min. Alpha (amplified luminescent proximity homogeneous assay) signal was measured on an Envision multi-label plate reader at the end of the incubation. All steps were conducted under dim fluorescent light.
These percent inhibition values were regressed against compound concentrations in the assay using four parameter logit non-linear curve fitting (XLFit, IDBS). The IC50 values were derived from the curve fitting as inflection points on the dose-response curves and are set out in Table 14 below.

SMILES	IC50 [nM]
CC(C)N(C)C(=O)c1cc(F)ccc1-n1cc(C2CCC3(CC2)CN(C)C3)c2ccncc21 [Example 51A, 5-fluoro-N-isopropyl-N-methyl-2-(3-(2-methyl-2-azaspiro[3.5]nonan-7-yl)-1H-pyrrolo[2,3-c]pyridin-1-yl)benzamide]	100 to 1000
CC(C)N(C)C(=O)c1cc(F)ccc1-n1c(=O)n(C2CCN(Cc3ccc(F)cc3)CC2)c2ccncc21 [Example 83, 5-fluoro-2-(1-(1-(4-fluorobenzyl)piperidin-4-yl)-2-oxo-1,2-dihydro-3H-imidazo[4,5-c]pyridin-3-yl)-N-isopropyl-N-methylbenzamide]	100 to 1000
Fc1ccc(-n2cc(C3CCN(CCc4ccccc4)CC3)c3ccncc32)cc1 [Example 40, 1-(4-fluorophenyl)-3-(1-phenethylpiperidin-4-yl)-1H-pyrrolo[2,3-c]pyridine]	100 to 1000
CC(C)N(C)C(=O)c1cc(F)ccc1-n1cc([C@H]2CC[C@H](N3CCC(O)CC3)CC2)c2ccncc21 [Example 108, 5-fluoro-2-(3-(trans-4-(4-hydroxypiperidin-1-yl)cyclohexyl)-1H-pyrrolo[2,3-c]pyridin-1-yl)-N-isopropyl-N-methylbenzamide]	100 to 1000
Fc1ccc(-n2cc(C3CCN(Cc4ccc5cc[nH]c5c4)CC3)c3ncncc32)cc1 [Example 68, 7-(1-((1H-indol-6-yl)methyl)piperidin-4-yl)-5-(4-fluorophenyl)-5H-pyrrolo[3,2-d]pyrimidine]	≥ 1000

Other lines, results leading:

IC50 [nM]	SMILES
100 to 1000	CC(C)N(C)C(=O)c1cc(F)ccc1-n1cc([C@H]2CC[C@@H](N3CCC(C(=O)O)CC3)CC2)c2ccncc21 [Example 120, 1-(cis-4-(1-(4-fluoro-2-(isopropyl(methyl)carbamoyl)phenyl)-1H-pyrrolo[2,3-c]pyridin-3-yl)cyclohexyl)piperidine-4-carboxylic acid]
100 to 1000	CC(C)N(C)C(=O)c1cc(F)ccc1-n1cc(C2CCC3(CC2)CNC3)c2ccncc21 [Example 51, 2-(3-(2-azaspiro[3.5]nonan-7-yl)-1H-pyrrolo[2,3-c]pyridin-1-yl)-5-fluoro-N-isopropyl-N-methylbenzamide]
< 100	CC(C)N(C)C(=O)c1cc(F)ccc1-n1cc(C2CCN(C[C@H]3C[C@@H](NS(C)(=O)=O)C3)CC2)c2ccncc21 (stereo in doubt) [Example 92, 5-fluoro-N-isopropyl-N-methyl-2-(3-(1-((cis-3-(methylsulfonamido)cyclobutyl)methyl)piperidin-4-yl)-1H-pyrrolo[2,3-c]pyridin-1-yl)benzamide]
100 to 1000	CC(C)N(C)C(=O)c1cc(F)ccc1-n1cc([C@H]2CC[C@@H](N3CCC(F)(F)CC3)CC2)c2ccncc21 [Example 111, 2-(3-(cis-4-(4,4-difluoropiperidin-1-yl)cyclohexyl)-1H-pyrrolo[2,3-c]pyridin-1-yl)-5-fluoro-N-isopropyl-N-methylbenzamide]
100 to 1000	CC(C)N(C)C(=O)c1cc(F)ccc1-n1cc(C2CCC(Oc3ccccc3)CC2)c2ccncc21 (stereo not drawn) [Example 59, 5-fluoro-N-isopropyl-N-methyl-2-(3-(4-phenoxycyclohexyl)-1H-pyrrolo[2,3-c]pyridin-1-yl)benzamide]
< 100	CC(C)N(C)C(=O)c1cc(F)ccc1-n1cc([C@H]2CC[C@H](N3CCN(CCO)CC3)CC2)c2ccncc21 [Example 114, 5-fluoro-2-(3-(trans-4-(4-(2-hydroxyethyl)piperazin-1-yl)cyclohexyl)-1H-pyrrolo[2,3-c]pyridin-1-yl)-N-isopropyl-N-methylbenzamide]
< 100	CC(C)N(C(=O)c1cc(F)ccc1-n1cc(C2CCC(N3CCC4(CC(NS(C)(=O)=O)C4)C3)CC2)c2ccncc21)C(C)C (single isomer, unassigned) [Example 139A, 5-fluoro-N,N-diisopropyl-2-(3-(4-(2-(methylsulfonamido)-6-azaspiro[3.4]octan-6-yl)cyclohexyl)-1H-pyrrolo[2,3-c]pyridin-1-yl)benzamide]
